Data set [1] in a line: Half life in rat liver microsomes at 100 uM after 5 to 180 mins by HPLC-UV analysis. It is filed as ADME.
The nature of data set [2]: Metabolic stability in rat liver microsomes after 5 to 180 mins by HPLC-UV analysis. It is filed as ADME.

Structures are written as SMILES.

In data set [1], `Oc1c(I)cc(Cl)c2cccnc12` [CLIOQUINOL] had a half-life at 100 µM of 34.8 min. In data set [2], the k el was 0.000331 s⁻¹.
As to `COc1cc2c(cc1OC)C(=O)C(CC1CCN(Cc3ccccc3)CC1)C2` (stereo unspecified) [DONEPEZIL], the half-life at 100 µM in data set [1] was 73.3 min. Also, the k el in data set [2] is 0.000149 s⁻¹.
In data set [1], `C[C@]12CC[C@H]3[C@@H](CCC4=CC(=O)CC[C@@]43C)[C@@H]1CC[C@@H]2O` [TESTOSTERONE] came in with a half-life at 100 µM of 2.1 min. For the same molecule, the k el in data set [2] is 0.00525 s⁻¹.

The values are drawn from ChEMBL document CHEMBL3734674, “Design, Synthesis, and Evaluation of Orally Available Clioquinol-Moracin M Hybrids as Multitarget-Directed Ligands for Cognitive Improvement in a Rat Model of Neurodegeneration in Alzheimer's Disease” (J Med Chem, 2015).
